Test results taken from ChEMBL document CHEMBL1158580, “Novel 1,3,5-triphenyl-2-pyrazolines as anti-infective agents” (2010).
Converted amounts (≈) assume the structure as drawn.

Experiments:
Klebsiella aerogenes = assay: Antibacterial activity against Enterobacter aerogenes NCIM 5139 by microdilution method; format: functional
Escherichia coli = assay: Antibacterial activity against Escherichia coli NCIM 2931 by microdilution method; format: functional
Fusarium proliferatum = assay: Antifungal activity against Fusarium proliferatum NCIM 1105 assessed as fungal growth inhibition at 2 mg/ml by microdilution method; format: functional
Aspergillus flavus = assay: Antifungal activity against Aspergillus flavus NCIM 594 assessed as fungal growth inhibition at 2 mg/ml by microdilution method; format: functional
Candida tropicalis = assay: Antifungal activity against Candida tropicalis NCIM 3556 assessed as fungal growth inhibition at 2 mg/ml by microdilution method; format: functional
Proteus vulgaris = assay: Antibacterial activity against Proteus vulgaris NCIM 2813 by microdilution method; format: functional
Bacillus subtilis = assay: Antibacterial activity against Bacillus subtilis NCIM 2718 by microdilution method; format: functional
Aspergillus niger = assay: Antifungal activity against Aspergillus niger NCIM 596 assessed as fungal growth inhibition at 2 mg/ml by microdilution method; format: functional
Staphylococcus aureus = assay: Antibacterial activity against Staphylococcus aureus NCIM 5021 by microdilution method; format: functional
Salmonella enterica = assay: Antibacterial activity against Salmonella typhi NCIM 2501 by microdilution method; format: functional, Salmonella enterica subsp. enterica serovar Typhi
[1] = tested on: Mycobacterium tuberculosis; assay: Antimycobacterial activity against Mycobacterium tuberculosis H37Rv assessed as reduction in relative light units at 100 ug/ml after 72 hrs by luciferase reporter phage assay; format: functional; parameters: scale not given: the % may be the effect or the level left
[2] = tested on: Mycobacterium tuberculosis; assay: Antimycobacterial activity against Mycobacterium tuberculosis H37Rv assessed as reduction in relative light units at 50 ug/ml after 72 hrs by luciferase reporter phage assay; format: functional; parameters: scale not given: the % may be the effect or the level left

Compound	MIC (Klebsiella aerogenes)	MIC (Escherichia coli)	inhibition at 2000 µg/mL (Fusarium proliferatum)	inhibition at 2000 µg/mL (Aspergillus flavus)	inhibition at 2000 µg/mL (Candida tropicalis)	MIC (Proteus vulgaris)	MIC (Bacillus subtilis)	inhibition at 2000 µg/mL (Aspergillus niger)	MIC (Staphylococcus aureus)	MIC (Salmonella enterica)	Activity [1]	Activity [2]
CSc1ccc(C2CC(c3ccccc3)=NN2c2ccccc2)cc1 (configuration not stated)	363 µM (≈ 125 µg/mL)	45 µM (≈ 15.5 µg/mL)	94.1%	30.5%	73.1%	726 µM (≈ 250 µg/mL)	363 µM (≈ 125 µg/mL)	93.5%	726 µM (≈ 250 µg/mL)	0.726 µM (≈ 0.25 µg/mL)	17.65%	0%
CSc1ccc(C2CC(c3ccc(Cl)cc3)=NN2c2ccccc2)cc1 (configuration not stated)	330 µM (≈ 125 µg/mL)	82 µM (≈ 31.1 µg/mL)	72.9%	13.1%	94.4%	660 µM (≈ 250 µg/mL)	330 µM (≈ 125 µg/mL)	93%	660 µM (≈ 250 µg/mL)	0.33 µM (≈ 0.125 µg/mL)	17.43%	0%
CS(=O)(=O)c1ccc(C2CC(c3ccccc3)=NN2c2ccccc2)cc1 (configuration not stated)	332 µM (≈ 125 µg/mL)	166 µM (≈ 62.5 µg/mL)	97.6%	65.8%	30.6%	332 µM (≈ 125 µg/mL)	332 µM (≈ 125 µg/mL)	47.2%	664 µM (≈ 250 µg/mL)	0.332 µM (≈ 0.125 µg/mL)	50.71%	1.7%
CS(=O)(=O)c1ccc(C2CC(c3ccc(Cl)cc3)=NN2c2ccccc2)cc1 (configuration not stated)	304 µM (≈ 125 µg/mL)	152 µM (≈ 62.5 µg/mL)	88.3%	88.4%	95.6%	304 µM (≈ 125 µg/mL)	304 µM (≈ 125 µg/mL)	97.5%	608 µM (≈ 250 µg/mL)	0.304 µM (≈ 0.125 µg/mL)	15.46%	0.76%
CSc1ccc(C2CC(c3cccc([N+](=O)[O-])c3)=NN2c2ccccc2)cc1 (configuration not stated)	321 µM (≈ 125 µg/mL)	160 µM (≈ 62.3 µg/mL)	56.9%	19%	45.9%	321 µM (≈ 125 µg/mL)	321 µM (≈ 125 µg/mL)	65.2%	642 µM (≈ 250 µg/mL)	0.321 µM (≈ 0.125 µg/mL)	5.7%	0%
COc1ccc(C2=NN(c3ccccc3)C(c3ccc(SC)cc3)C2)cc1OC (configuration not stated)	155 µM (≈ 62.7 µg/mL)	155 µM (≈ 62.7 µg/mL)	93.2%	63.8%	9.12%	309 µM (≈ 125 µg/mL)	309 µM (≈ 125 µg/mL)	9.65%	618 µM (≈ 250 µg/mL)	0.309 µM (≈ 0.125 µg/mL)	30.3%	32.66%
CSc1ccc(C2CC(c3cccc4c3OCO4)=NN2c2ccccc2)cc1 (configuration not stated)	322 µM (≈ 125 µg/mL)	80 µM (≈ 31.1 µg/mL)	81.3%	31.2%	17.1%	322 µM (≈ 125 µg/mL)	322 µM (≈ 125 µg/mL)	71.4%	644 µM (≈ 250 µg/mL)	0.322 µM (≈ 0.125 µg/mL)	27.81%	10.59%
CSc1ccc(C2CC(c3ccc(C)cc3)=NN2c2ccccc2)cc1 (configuration not stated)	349 µM (≈ 125 µg/mL)	174 µM (≈ 62.4 µg/mL)	83.8%	38.6%	95.3%	349 µM (≈ 125 µg/mL)	349 µM (≈ 125 µg/mL)	93%	697 µM (≈ 250 µg/mL)	0.349 µM (≈ 0.125 µg/mL)	19.26%	0%
CSc1ccc(C2CC(c3cccc(Br)c3)=NN2c2ccccc2)cc1 (configuration not stated)	295 µM (≈ 125 µg/mL)	295 µM (≈ 125 µg/mL)	90.1%	91.4%	65.1%	295 µM (≈ 125 µg/mL)	295 µM (≈ 125 µg/mL)	64.6%	591 µM (≈ 250 µg/mL)	0.295 µM (≈ 0.125 µg/mL)	20.17%	8.55%
CCOc1ccc(C2=NN(c3ccccc3)C(c3ccc(SC)cc3)C2)cc1 (configuration not stated)	322 µM (≈ 125 µg/mL)	161 µM (≈ 62.6 µg/mL)	94.3%	38.2%	95.4%	322 µM (≈ 125 µg/mL)	322 µM (≈ 125 µg/mL)	85.3%	643 µM (≈ 250 µg/mL)	0.322 µM (≈ 0.125 µg/mL)	48.35%	36.44%
CSc1ccc(C2CC(c3ccc(F)cc3)=NN2c2ccccc2)cc1 (configuration not stated)	345 µM (≈ 125 µg/mL)	22 µM (≈ 7.97 µg/mL)	98.7%	94.8%	97.4%	345 µM (≈ 125 µg/mL)	172 µM (≈ 62.3 µg/mL)	97.3%	690 µM (≈ 250 µg/mL)	0.69 µM (≈ 0.25 µg/mL)	4.75%	0%
COc1ccc(C2=NN(c3ccccc3)C(c3ccc(SC)cc3)C2)cc1 (configuration not stated)	334 µM (≈ 125 µg/mL)	83 µM (≈ 31.1 µg/mL)	65.9%	48.4%	92.9%	334 µM (≈ 125 µg/mL)	334 µM (≈ 125 µg/mL)	81.1%	668 µM (≈ 250 µg/mL)	0.334 µM (≈ 0.125 µg/mL)	24.87%	0%
COc1cccc(C2=NN(c3ccccc3)C(c3ccc(SC)cc3)C2)c1 (configuration not stated)	334 µM (≈ 125 µg/mL)	167 µM (≈ 62.5 µg/mL)	96.1%	51.5%	98.7%	334 µM (≈ 125 µg/mL)	334 µM (≈ 125 µg/mL)	90.1%	668 µM (≈ 250 µg/mL)	0.334 µM (≈ 0.125 µg/mL)	26.85%	7.45%
CSc1ccc(C2CC(c3ccc(Br)cc3)=NN2c2ccccc2)cc1 (configuration not stated)	295 µM (≈ 125 µg/mL)	148 µM (≈ 62.7 µg/mL)	34.3%	28.2%	88.1%	295 µM (≈ 125 µg/mL)	295 µM (≈ 125 µg/mL)	88.5%	591 µM (≈ 250 µg/mL)	0.295 µM (≈ 0.125 µg/mL)	18.55%	0%
CSc1ccc(C2CC(c3cccc(N)c3)=NN2c2ccccc2)cc1 (configuration not stated)	347 µM (≈ 125 µg/mL)	173 µM (≈ 62.2 µg/mL)	93.6%	25%	86.1%	347 µM (≈ 125 µg/mL)	347 µM (≈ 125 µg/mL)	84.4%	694 µM (≈ 249 µg/mL)	0.347 µM (≈ 0.125 µg/mL)	13.79%	0%
CSc1ccc(C2CC(c3ccccc3Cl)=NN2c2ccccc2)cc1 (configuration not stated)	165 µM (≈ 62.5 µg/mL)	165 µM (≈ 62.5 µg/mL)	93.6%	88.2%	91%	330 µM (≈ 125 µg/mL)	330 µM (≈ 125 µg/mL)	98.3%	330 µM (≈ 125 µg/mL)	0.33 µM (≈ 0.125 µg/mL)	0%	0%
